Measurements reported in patent US20070173462A1, “Treatment of diseases associated with the use of antibiotics” (Optimer Pharmaceuticals, Inc., priority 2004, published 2007).
Converted amounts (≈) assume the structure as drawn. Read-outs that look alike come from different tables or passages of the source.

What was measured:
Type in all cases: cell-based
C. difficile = assay: MIC via agar dilution, 110 genetically distinct clinical isolates of C. difficile
Enterococcus sp. = assay: microbe, parasite or virus in culture; settings: clinical gastrointestinal isolates, n=22
Pseudomonas sp. = assay: MIC, clinical isolates (Table 3); settings: n=15
Text: (§1) Compound I was additionally tested against anaerobic clinical isolates and against aerobic bacteria. […] The compound was also active against clinical strains of Staphylococcus sp. and Enterococcus sp.

Staphylococcus sp. = assay: MIC, clinical isolates (Table 3)
Text: as §1

Enterobacteiaceae = assay: MIC, clinical isolates (Table 3); settings: n=28
Text: as §1

Bacteroides fragilis = assay: MIC, clinical isolates (Table 3); settings: n=69
Text: as §1

Prevotella sp. = assay: MIC, clinical isolates (Table 3); settings: n=35
Text: as §1

Streptococcus sp. = assay: MIC, clinical isolates (Table 3); settings: n=10
Text: as §1

Lactobacillus sp. = assay: MIC, clinical isolates (Table 3); settings: n=8, in µg/mL
Text: as §1

Eubacterium sp. = assay: MIC, clinical isolates (Table 3); settings: n=26
Text: as §1

Propionibacterium sp. = assay: MIC, clinical isolates (Table 3); settings: n=16
Text: as §1

C. innocuum = assay: microbe, parasite or virus in culture; settings: [Clostridium] innocuum; clinical isolates, n=9

Q: For `CCc1c(Cl)c(O)c(Cl)c(O)c1C(=O)O[C@H]1[C@H](O)[C@H](OC)[C@H](OC/C2=C\C=C\C[C@H](O)/C(C)=C/[C@H](CC)C(O[C@@H]3OC(C)(C)[C@@H](OC(=O)C(C)C)[C@H](O)[C@@H]3O)/C(C)=C/C(C)=C/C[C@@H](C(C)O)OC2=O)O[C@@H]1C` (stereo partly shown) [Compound I], which MIC90 (C. difficile; Clostridioides difficile, 110 clinical isolates, agar dilution) is on record?
A: The MIC90 was 0.125 µg/mL (≈ 0.118 µM).

Q: And the MIC (C. difficile; Clostridioides difficile, 110 clinical isolates, agar dilution, read-out: Geometric Mean (MIC))?
A: The MIC was 0.08 µg/mL (≈ 0.0756 µM).

Q: What about the MIC (C. difficile; isolate ORG ID 64 5940) of the same molecule?
A: The MIC was 0.125 µg/mL (≈ 0.118 µM).

Q: What about the MIC (C. difficile; isolate ORG ID 67 6367) of the same molecule?
A: Its MIC is 0.125 µg/mL (≈ 0.118 µM).

Q: And the MIC (C. difficile; isolate ORG ID 70 6376)?
A: The MIC was 0.125 µg/mL (≈ 0.118 µM).

Q: And the MIC (C. difficile; isolate ORG ID 71 6379)?
A: Its MIC is 0.125 µg/mL (≈ 0.118 µM).

Q: And the MIC (C. difficile; isolate ORG ID 72 6380)?
A: Its MIC is 0.125 µg/mL (≈ 0.118 µM).

Q: And the MIC (C. difficile; isolate ORG ID 75 6388)?
A: The MIC was 0.125 µg/mL (≈ 0.118 µM).

Q: And the MIC (C. difficile; isolate ORG ID 76 6389)?
A: The MIC was 0.125 µg/mL (≈ 0.118 µM).

Q: And the MIC (C. difficile; isolate ORG ID 80 6327)?
A: Its MIC is 0.125 µg/mL (≈ 0.118 µM).

Q: What about the MIC (C. difficile; isolate ORG ID 81 6328) of the same molecule?
A: Its MIC is 0.125 µg/mL (≈ 0.118 µM).

Q: And the MIC (C. difficile; isolate ORG ID 84 6331)?
A: Its MIC is 0.125 µg/mL (≈ 0.118 µM).

Q: What about the MIC (C. difficile; isolate ORG ID 87 6334) of the same molecule?
A: Its MIC is 0.125 µg/mL (≈ 0.118 µM).

Q: What about the MIC (C. difficile; isolate ORG ID 88 6335) of the same molecule?
A: The MIC was 0.125 µg/mL (≈ 0.118 µM).

Q: And the MIC (C. difficile; isolate ORG ID 90 6338)?
A: The MIC was 0.125 µg/mL (≈ 0.118 µM).

Q: And the MIC (C. difficile; isolate ORG ID 91 6339)?
A: The MIC was 0.125 µg/mL (≈ 0.118 µM).

Q: What about the MIC (C. difficile; isolate ORG ID 93 6341) of the same molecule?
A: The MIC was 0.125 µg/mL (≈ 0.118 µM).

Q: What about the MIC (C. difficile; isolate ORG ID 95 6347) of the same molecule?
A: The MIC was 0.125 µg/mL (≈ 0.118 µM).

Q: And the MIC (C. difficile; isolate ORG ID 98 6350)?
A: The MIC was 0.125 µg/mL (≈ 0.118 µM).

Q: What about the MIC (C. difficile; isolate ORG ID 100 6353) of the same molecule?
A: Its MIC is 0.125 µg/mL (≈ 0.118 µM).

Q: And the MIC (C. difficile; isolate ORG ID A1 1535)?
A: The MIC was 0.125 µg/mL (≈ 0.118 µM).

Q: And the MIC (C. difficile; isolate ORG ID AF1 1808)?
A: Its MIC is 0.125 µg/mL (≈ 0.118 µM).

Q: And the MIC (C. difficile; isolate ORG ID AG1 3044)?
A: Its MIC is 0.125 µg/mL (≈ 0.118 µM).

Q: What about the MIC (C. difficile; isolate ORG ID AH1 3430) of the same molecule?
A: The MIC was 0.125 µg/mL (≈ 0.118 µM).

Q: What about the MIC (C. difficile; isolate ORG ID AN1 464) of the same molecule?
A: The MIC was 0.125 µg/mL (≈ 0.118 µM).

Q: And the MIC (C. difficile; isolate ORG ID AO1 287)?
A: Its MIC is 0.125 µg/mL (≈ 0.118 µM).

Q: What about the MIC (C. difficile; isolate ORG ID AS1 4099) of the same molecule?
A: Its MIC is 0.125 µg/mL (≈ 0.118 µM).

Q: What about the MIC (C. difficile; isolate ORG ID AT1 1216) of the same molecule?
A: Its MIC is 0.125 µg/mL (≈ 0.118 µM).

Q: And the MIC (C. difficile; isolate ORG ID AW1 4501)?
A: The MIC was 0.125 µg/mL (≈ 0.118 µM).

Q: What about the MIC (C. difficile; isolate ORG ID BE1 4307) of the same molecule?
A: Its MIC is 0.125 µg/mL (≈ 0.118 µM).

Q: What about the MIC (C. difficile; isolate ORG ID BI1 1675) of the same molecule?
A: Its MIC is 0.125 µg/mL (≈ 0.118 µM).

Q: And the MIC (C. difficile; isolate ORG ID BK1 4291)?
A: Its MIC is 0.125 µg/mL (≈ 0.118 µM).

Q: What about the MIC (C. difficile; isolate ORG ID BL1 716) of the same molecule?
A: The MIC was 0.125 µg/mL (≈ 0.118 µM).

Q: And the MIC (C. difficile; isolate ORG ID BN1 1322)?
A: Its MIC is 0.125 µg/mL (≈ 0.118 µM).

Q: And the MIC (C. difficile; isolate ORG ID BV1 1183)?
A: Its MIC is 0.125 µg/mL (≈ 0.118 µM).

Q: What about the MIC (C. difficile; isolate ORG ID BW1 3130) of the same molecule?
A: The MIC was 0.125 µg/mL (≈ 0.118 µM).

Q: And the MIC (C. difficile; isolate ORG ID BX1 4271)?
A: The MIC was 0.125 µg/mL (≈ 0.118 µM).

Q: And the MIC (C. difficile; isolate ORG ID CF1 5922)?
A: The MIC was 0.125 µg/mL (≈ 0.118 µM).

Q: And the MIC (C. difficile; isolate ORG ID CG1 1566)?
A: Its MIC is 0.125 µg/mL (≈ 0.118 µM).

Q: What about the MIC (C. difficile; isolate ORG ID CJ1 893) of the same molecule?
A: The MIC was 0.125 µg/mL (≈ 0.118 µM).

Q: What about the MIC (C. difficile; isolate ORG ID CP1 5491) of the same molecule?
A: Its MIC is 0.125 µg/mL (≈ 0.118 µM).

Q: What about the MIC (C. difficile; isolate ORG ID G1 1077) of the same molecule?
A: The MIC was 0.125 µg/mL (≈ 0.118 µM).

Q: And the MIC (C. difficile; isolate ORG ID I1 1389)?
A: Its MIC is 0.125 µg/mL (≈ 0.118 µM).

Q: What about the MIC (C. difficile; isolate ORG ID K1 4305) of the same molecule?
A: The MIC was 0.125 µg/mL (≈ 0.118 µM).

Q: And the MIC (C. difficile; isolate ORG ID K14 5780)?
A: Its MIC is 0.125 µg/mL (≈ 0.118 µM).

Q: And the MIC (C. difficile; isolate ORG ID L1 1423)?
A: The MIC was 0.125 µg/mL (≈ 0.118 µM).

Q: What about the MIC (C. difficile; isolate ORG ID N1 471) of the same molecule?
A: The MIC was 0.125 µg/mL (≈ 0.118 µM).

Q: And the MIC (C. difficile; isolate ORG ID R1 397)?
A: Its MIC is 0.125 µg/mL (≈ 0.118 µM).

Q: And the MIC (C. difficile; isolate ORG ID V1 1521)?
A: Its MIC is 0.125 µg/mL (≈ 0.118 µM).

Q: What about the MIC (C. difficile; isolate ORG ID W1 3931) of the same molecule?
A: The MIC was 0.125 µg/mL (≈ 0.118 µM).

Q: And the MIC (C. difficile; isolate ORG ID X1 1890)?
A: The MIC was 0.125 µg/mL (≈ 0.118 µM).

Q: And the MIC50 (Enterococcus sp.; Enterococcus)?
A: The MIC50 was 8 µg/mL (≈ 7.56 µM).

Q: What about the MIC90 (Enterococcus sp.; Enterococcus) of the same molecule?
A: Its MIC90 is 8 µg/mL (≈ 7.56 µM).

Q: And the “Range (MIC)” value (Enterococcus sp.)?
A: The value was 0.5-16^ μg/mL.

Q: And the MIC50 (Pseudomonas sp.; Pseudomonas)?
A: The MIC50 was greater than 64 µg/mL.

Q: What about the Range (MIC) (Pseudomonas sp.) of the same molecule?
A: The Range (MIC) was greater than 64 µg/mL.

Q: And the MIC50 (Staphylococcus sp.; Staphylococcus, clinical isolates, n=10)?
A: The MIC50 was 2 µg/mL (≈ 1.89 µM).

Q: And the “Range (MIC)” value (Staphylococcus sp.; clinical isolates, n=10, in µg/mL)?
A: Its value is 1-8.

Q: And the “activity (in words)” value (Staphylococcus sp.; clinical strains)?
A: The value was “active”.

Q: What about the MIC50 (Enterobacteiaceae) of the same molecule?
A: The MIC50 was greater than 64 µg/mL.

Q: What about the Range (MIC) (Enterobacteiaceae) of the same molecule?
A: The Range (MIC) was greater than 64 µg/mL.

Q: And the MIC50 (Bacteroides fragilis; Bacteroides fragilis)?
A: Its MIC50 is no less than 128 µg/mL.

Q: What about the “Range (MIC)” value (Bacteroides fragilis) of the same molecule?
A: The value was “≧128^”.

Q: What about the MIC50 (Prevotella sp.) of the same molecule?
A: The MIC50 was no less than 128 µg/mL.

Q: And the MIC50 (Streptococcus sp.)?
A: The MIC50 was 16 µg/mL (≈ 15.1 µM).

Q: What about the “Range (MIC)” value (Lactobacillus sp.) of the same molecule?
A: The value was 8-32.

Q: What about the MIC50 (Eubacterium sp.) of the same molecule?
A: The MIC50 was 32 µg/mL (≈ 30.2 µM).

Q: And the MIC50 (Propionibacterium sp.)?
A: Its MIC50 is 4 µg/mL (≈ 3.78 µM).

Q: What about the MIC50 (C. innocuum) of the same molecule?
A: The MIC50 was greater than 1020 µg/mL.

Q: What about the MIC90 (C. innocuum) of the same molecule?
A: The MIC90 was greater than 1020 µg/mL.
